Measured values published in US20160280699A1, “SUBSTITUTED PHENYLALANINE DERIVATIVES” (BAYER PHARMA AKTIENGESELLSCHAFT, priority 2013, published 2016).
Where a name gives a salt, the structure may show the parent alone.

Experiments:
Assay type in all cases: biochemical
human factor XIa = target: T1, human factor XIa (Homo sapiens, UniProt P03951); assay: Measurement of FXIa inhibition (fluorogenic peptide substrate Boc-Glu(OBzl)-Ala-Arg-AMC); conditions: factor XIa from Kordia, 15 min preincubation, 30 min at 22° C., fluorescence
T1 construct: purchased Kordia
T1 sequence (P03951 388-625 limits assumed): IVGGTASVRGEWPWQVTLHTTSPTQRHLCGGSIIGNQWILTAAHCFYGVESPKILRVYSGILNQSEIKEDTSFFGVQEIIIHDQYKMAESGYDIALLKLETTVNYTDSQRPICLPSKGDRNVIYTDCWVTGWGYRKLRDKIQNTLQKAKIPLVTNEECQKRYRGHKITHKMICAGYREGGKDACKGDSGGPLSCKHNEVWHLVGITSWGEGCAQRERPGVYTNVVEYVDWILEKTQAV
T1 sequence (P03951 19-387 partner limits assumed): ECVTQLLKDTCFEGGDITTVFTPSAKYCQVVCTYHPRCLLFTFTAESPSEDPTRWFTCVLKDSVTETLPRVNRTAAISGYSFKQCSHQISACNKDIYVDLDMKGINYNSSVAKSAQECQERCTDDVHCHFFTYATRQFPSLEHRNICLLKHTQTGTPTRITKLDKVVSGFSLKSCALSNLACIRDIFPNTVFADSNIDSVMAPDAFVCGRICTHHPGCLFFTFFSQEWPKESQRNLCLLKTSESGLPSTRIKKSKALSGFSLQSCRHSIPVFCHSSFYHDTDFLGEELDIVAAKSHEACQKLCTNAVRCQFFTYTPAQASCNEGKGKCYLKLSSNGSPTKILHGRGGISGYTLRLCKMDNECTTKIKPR

human and animal plasma = assay: Determination of anticoagulatory activity: activated partial thromboplastin time (aPTT) in plasma; conditions: concentration of test substance which brings about a 1.5-fold extension of the aPTT, 37° C., C.K. Prest kit
Method in brief: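 Citrated human or animal plasma (e.g. mouse, rat, rabbit, pig, dog) preincubated 3 min at 37 °C with test substance and cephalin/kaolin PTT reagent. Value is the concentration giving a 1.5-fold aPTT extension.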

human plasmin = target: T2, human plasmin (Homo sapiens, UniProt P00747); assay: Measurement of plasmin inhibition (fluorogenic peptide substrate MeOSuc-Ala-Phe-Lys-AMC); conditions: plasmin from Kordia, 15 min preincubation, 30 min at 22° C., fluorescence
T2 construct: purchased Kordia
T2 sequence (P00747 581-810 limits assumed): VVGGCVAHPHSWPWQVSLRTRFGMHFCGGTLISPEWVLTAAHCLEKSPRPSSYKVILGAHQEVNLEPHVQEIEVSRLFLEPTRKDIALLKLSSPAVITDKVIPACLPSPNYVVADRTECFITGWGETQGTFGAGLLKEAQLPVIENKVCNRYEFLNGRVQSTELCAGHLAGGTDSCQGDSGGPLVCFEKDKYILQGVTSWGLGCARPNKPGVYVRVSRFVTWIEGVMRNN
T2 sequence (P00747 97-580 partner limits assumed): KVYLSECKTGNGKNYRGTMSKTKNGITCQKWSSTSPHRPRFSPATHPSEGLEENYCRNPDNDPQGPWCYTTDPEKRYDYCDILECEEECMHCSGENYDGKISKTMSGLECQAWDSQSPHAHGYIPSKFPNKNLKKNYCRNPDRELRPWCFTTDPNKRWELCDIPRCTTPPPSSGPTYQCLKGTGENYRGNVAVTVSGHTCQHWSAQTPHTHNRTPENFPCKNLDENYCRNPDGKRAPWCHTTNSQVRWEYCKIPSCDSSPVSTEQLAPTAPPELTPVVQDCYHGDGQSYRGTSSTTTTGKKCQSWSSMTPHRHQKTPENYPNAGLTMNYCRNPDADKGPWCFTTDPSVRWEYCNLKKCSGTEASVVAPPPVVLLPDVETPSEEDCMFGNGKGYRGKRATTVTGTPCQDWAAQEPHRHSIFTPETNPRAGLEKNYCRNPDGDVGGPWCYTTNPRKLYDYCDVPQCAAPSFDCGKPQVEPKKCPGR
Protocol: The plasmin inhibition of the inventive substances is determined using a biochemical test system which utilizes the reaction of a peptidic plasmin substrate to determine the enzymatic activity of human plasmin. Here, plasmin cleaves from the peptic plasmin substrate the C-terminal aminomethylcoumarin (AMC), the fluorescence of which is measured. The determinations are carried out in microtitre plates.
Test substances are dissolved in dimethyl sulphoxide and serially diluted in dimethyl sulphoxide (3000 μM to 0.0078 μM; resulting final concentrations in the test: 50 μM to 0.00013 μM). In each case 1 μl of the diluted substance solutions is placed into the wells of white microtitre plates from Greiner (384 wells). […] After 15 min of incubation, the enzyme reaction is started by addition of 20 μl of the plasmin substrate MeOSuc-Ala-Phe-Lys-AMC dissolved in assay buffer (150 μM in assay buffer) from Bachem, the mixture is incubated at room temperature (22° C.) for 30 min and fluorescence is then measured (excitation: 360 nm, emission: 460 nm). The measured emissions of the test batches with test substance are compared to those of control batches without test substance (only dimethyl sulphoxide instead of test substance in dimethyl sulphoxide), and IC50 values are calculated from the concentration/activity relationships.

| IC50 (human factor XIa) [nM] | Compound | aPTT (human and animal plasma) [µmol/L] | IC50 (human plasmin) [nM] |
| --- | --- | --- | --- |
| 3.6 | CC1CN(c2ccc(-c3ccc(C[C@H](NC(=O)C4CCC(CN)CC4)C(=O)Nc4ccc(-c5nn[nH]n5)cc4)cc3)cn2)CC(C)O1 (mixture of isomers) [Example 9, N-alpha-{[trans-4-(Aminomethyl)cyclohexyl]carbonyl}-4-{6-[(2RS,6SR)-2,6-dimethylmorpholin-4-yl]pyridin-3-yl}-N-[4-(2H-tetrazol-5-yl)phenyl]-L-phenylalaninamide hydrochloride] | 0.35 | 14 |
| 2.6 | Cl.NC[C@H]1CC[C@H](C(=O)N[C@@H](Cc2ccc(-c3cnc(N4CCOCC4)nc3)cc2)C(=O)Nc2ccc(-c3nc(C(F)(F)C(F)(F)C(=O)O)n[nH]3)cc2)CC1 [Example 59, 3-(5-{4-[(N-{[trans-4-(Aminomethyl)cyclohexyl]carbonyl}-4-[2-(morpholin-4-yl)pyrimidin-5-yl]-L-phenylalanyl)amino]phenyl}-1H-1,2,4-triazol-3-yl)-2,2,3,3-tetrafluoropropanoic acid hydrochloride] | 0.08 |  |

| Compound | IC50 (human factor XIa) [nM] | aPTT (human and animal plasma) [µmol/L] | IC50 (human plasmin) [nM] |
| --- | --- | --- | --- |
| CCOC(=O)c1ccc(-c2ccc(C[C@H](NC(=O)[C@H]3CC[C@H](CN)CC3)C(=O)Nc3ccc(-c4nn[nH]n4)cc3)cc2)c(C)n1 [Example 58, Ethyl 5-{4-[(2S)-2-({[trans-4-(aminomethyl)cyclohexyl]carbonyl}amino)-3-oxo-3-{[4-(2H-tetrazol-5-yl)phenyl]amino}propyl]phenyl}-6-methylpyridin-2-carboxylate hydrochloride] | 0.8 | 0.34 | 8.6 |
